Experimental data taken from the supplement of paper PMC8967900.

Legend:
Assay in all cases: selective drug sensitivity score (sDSS, relative to normal bone marrow) (sDSS (score)); higher = more potent and effective on the cell line relative to normal bone marrow cells
Conditions in all cases: 72 h
NALM-6 = tested on: NALM-6
KASUMI-2 = tested on: KASUMI-2
ALL-PO = tested on: ALL-PO
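Further: ALL cell lines in 384-well plates, five doses spanning 10,000-fold, each plate scaled between vehicle and 100 µmol/L benzalkonium chloride controls, sDSS an adapted area-under-curve metric.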

Structure (SMILES)	selective drug sensitivity score (NALM-6)	selective drug sensitivity score (KASUMI-2)	selective drug sensitivity score (ALL-PO)
CN(C)CCOc1ccc(/C(=C(/CCCl)c2ccccc2)c2ccccc2)cc1 [Toremifene] (top concentration 10000 nM)	1.68	5.68	3.18
CC(=O)Nc1cccc(-n2c(=O)n(C3CC3)c(=O)c3c(Nc4ccc(I)cc4F)n(C)c(=O)c(C)c32)c1 [Trametinib] (top concentration 250 nM)	2.86	5.86	-1.44
O=C(CCCCCCC(=O)Nc1ccc([C@H]2O[C@@H](CSc3nc(-c4ccccc4)c(-c4ccccc4)o3)C[C@@H](c3ccc(CO)cc3)O2)cc1)NO [Tubacin] (top concentration 10000 nM)	9.94	4.14	5.74
CN1CCc2c(c3ccccc3n2Cc2ccc(C(=O)NO)cc2)C1 [Tubastatin_A] (top concentration 10000 nM)	1.36	7.06	3.06
C[C@]1(c2nc3c(C(N)=O)cccc3[nH]2)CCCN1 [Veliparib] (top concentration 10000 nM)	-2.48	2.82	-1.78
CS(=O)(=O)c1ccc(C(=O)Nc2ccc(Cl)c(-c3ccccn3)c2)c(Cl)c1 [Vismodegib] (top concentration 10000 nM)	-1.14	3.96	3.56
